Measurements from PubChem BioAssay (NCI).
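Tested at 5 concentrations; 48 h exposure; 96-well plates; endpoints linearly interpolated, else capped at highest concentration. GI50: concentration for 50% inhibition of growth. TGI: total growth inhibition.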

How the values were obtained:
Experiment in all cases: growth of human tumour cells (NCI), 48 h
786-0 renal = system: 786-0 renal
OVCAR-3 ovarian = system: OVCAR-3 ovarian
NCI-H522 lung = system: NCI-H522 lung
UACC-257 melanoma = system: UACC-257 melanoma
OVCAR-5 ovarian = system: OVCAR-5 ovarian
NCI-H23 lung = system: NCI-H23 lung
MDA-MB-435 = system: MDA-MB-435
MOLT-4 leukemia = system: MOLT-4 leukemia
MCF7 breast = system: MCF7 breast
COLO 205 colon = system: COLO 205 colon
EKVX NSCLC = system: EKVX NSCLC
OVCAR-4 ovarian = system: OVCAR-4 ovarian
KM12 colon = system: KM12 colon
DU-145 prostate = system: DU-145 prostate
HOP-92 NSCLC = system: HOP-92 NSCLC
SF-268 CNS = system: SF-268 CNS
SF-539 CNS = system: SF-539 CNS
ACHN renal = system: ACHN renal
CCRF-CEM leukemia = system: CCRF-CEM leukemia
A549 NSCLC = system: A549 NSCLC
SNB-75 CNS = system: SNB-75 CNS
UO-31 renal = system: UO-31 renal
SNB-19 CNS = system: SNB-19 CNS
M14 melanoma = system: M14 melanoma
SF-295 CNS = system: SF-295 CNS
HCC-2998 colon = system: HCC-2998 colon
HT29 colon = system: HT29 colon
BT-549 breast = system: BT-549 breast
MALME-3M melanoma = system: MALME-3M melanoma
SK-OV-3 ovarian = system: SK-OV-3 ovarian
HCT-116 colon = system: HCT-116 colon
HCT-15 colon = system: HCT-15 colon
K-562 leukemia = system: K-562 leukemia
SK-MEL-5 melanoma = system: SK-MEL-5 melanoma
NCI-H460 lung = system: NCI-H460 lung
OVCAR-8 ovarian = system: OVCAR-8 ovarian
HS 578T breast = system: HS 578T breast
A498 renal = system: A498 renal
SR leukemia = system: SR leukemia
IGROV1 ovarian = system: IGROV1 ovarian
NCI/ADR-RES ovarian = system: NCI/ADR-RES ovarian
CAKI-1 renal = system: CAKI-1 renal
HOP-62 NSCLC = system: HOP-62 NSCLC
RPMI-8226 leukemia = system: RPMI-8226 leukemia
U251 CNS = system: U251 CNS
SW-620 colon = system: SW-620 colon
MDA-MB-231 breast = system: MDA-MB-231 breast
UACC-62 melanoma = system: UACC-62 melanoma
SK-MEL-28 melanoma = system: SK-MEL-28 melanoma
LOX IMVI melanoma = system: LOX IMVI melanoma
PC-3 prostate = system: PC-3 prostate
NCI-H226 lung = system: NCI-H226 lung
SK-MEL-2 melanoma = system: SK-MEL-2 melanoma
RXF 393 renal = system: RXF 393 renal
SN12C renal = system: SN12C renal
T-47D breast = system: T-47D breast
TK-10 renal = system: TK-10 renal
HL-60(TB) leukemia = system: HL-60(TB) leukemia

Cc1ccc2c(n1)C(=O)C(Cl)=C(Nc1ccc(C(F)(F)F)cc1)C2=O
GI50 (786-0 renal): 1.84 µM | TGI (786-0 renal): 3.7 µM | GI50 (OVCAR-3 ovarian): 1.61 µM | TGI (OVCAR-3 ovarian): 3.03 µM | GI50 (NCI-H522 lung): 2 µM | TGI (NCI-H522 lung): 4.93 µM | GI50 (UACC-257 melanoma): 1.7 µM | TGI (UACC-257 melanoma): 3.27 µM | GI50 (OVCAR-5 ovarian): 5.07 µM | TGI (OVCAR-5 ovarian): 19.8 µM | GI50 (NCI-H23 lung): 2.02 µM | TGI (NCI-H23 lung): 5.58 µM | GI50 (MDA-MB-435): 2.12 µM | TGI (MDA-MB-435): 4.49 µM | GI50 (MOLT-4 leukemia): 0.347 µM | TGI (MOLT-4 leukemia): 2.99 µM | GI50 (MCF7 breast): 1.95 µM | TGI (MCF7 breast): 5.03 µM | GI50 (COLO 205 colon): 2.21 µM | TGI (COLO 205 colon): 4.83 µM | GI50 (EKVX NSCLC): 1.68 µM | TGI (EKVX NSCLC): 3.98 µM | GI50 (OVCAR-4 ovarian): 1.69 µM | TGI (OVCAR-4 ovarian): 4.31 µM | GI50 (KM12 colon): 70.3 µM | TGI (KM12 colon): > 100 µM | GI50 (DU-145 prostate): 1.87 µM | TGI (DU-145 prostate): 3.41 µM | GI50 (HOP-92 NSCLC): 1.49 µM | TGI (HOP-92 NSCLC): 3.19 µM | GI50 (SF-268 CNS): 3.57 µM | TGI (SF-268 CNS): 16.5 µM | GI50 (SF-539 CNS): 1.92 µM | TGI (SF-539 CNS): 3.95 µM | GI50 (ACHN renal): 1.82 µM | TGI (ACHN renal): 3.42 µM | GI50 (CCRF-CEM leukemia): 0.879 µM | TGI (CCRF-CEM leukemia): 3.89 µM | GI50 (A549 NSCLC): > 100 µM | TGI (A549 NSCLC): > 100 µM | GI50 (SNB-75 CNS): > 100 µM | TGI (SNB-75 CNS): > 100 µM | GI50 (UO-31 renal): 1.37 µM | TGI (UO-31 renal): 2.75 µM | GI50 (SNB-19 CNS): 11.6 µM | TGI (SNB-19 CNS): > 100 µM | GI50 (M14 melanoma): 1.74 µM | TGI (M14 melanoma): 3.36 µM | GI50 (SF-295 CNS): > 100 µM | TGI (SF-295 CNS): > 100 µM | GI50 (HCC-2998 colon): 3.14 µM | TGI (HCC-2998 colon): 9.98 µM | GI50 (HT29 colon): 2.81 µM | TGI (HT29 colon): 7.43 µM | GI50 (BT-549 breast): 1.78 µM | TGI (BT-549 breast): 3.33 µM | GI50 (MALME-3M melanoma): 1.9 µM | TGI (MALME-3M melanoma): 3.78 µM | GI50 (SK-OV-3 ovarian): > 100 µM | TGI (SK-OV-3 ovarian): > 100 µM | GI50 (HCT-116 colon): 0.569 µM | TGI (HCT-116 colon): 2.02 µM | GI50 (HCT-15 colon): 1.36 µM | TGI (HCT-15 colon): 3.13 µM | GI50 (K-562 leukemia): 0.291 µM | TGI (K-562 leukemia): 2.23 µM | GI50 (SK-MEL-5 melanoma): 6.03 µM | TGI (SK-MEL-5 melanoma): 21.2 µM | GI50 (NCI-H460 lung): > 100 µM | TGI (NCI-H460 lung): > 100 µM | GI50 (OVCAR-8 ovarian): 3.26 µM | TGI (OVCAR-8 ovarian): > 100 µM | GI50 (HS 578T breast): 5.46 µM | TGI (HS 578T breast): 59.7 µM | GI50 (A498 renal): 40.2 µM | TGI (A498 renal): > 100 µM | GI50 (SR leukemia): 0.367 µM | TGI (SR leukemia): 2.37 µM | GI50 (IGROV1 ovarian): 1.82 µM | TGI (IGROV1 ovarian): 4.04 µM | GI50 (NCI/ADR-RES ovarian): 2.62 µM | TGI (NCI/ADR-RES ovarian): 8.06 µM | GI50 (CAKI-1 renal): 1.53 µM | TGI (CAKI-1 renal): 3.01 µM | GI50 (HOP-62 NSCLC): > 100 µM | TGI (HOP-62 NSCLC): > 100 µM | GI50 (RPMI-8226 leukemia): 2.23 µM | TGI (RPMI-8226 leukemia): 6.08 µM | GI50 (U251 CNS): 4.93 µM | TGI (U251 CNS): 20.5 µM | GI50 (SW-620 colon): 1.13 µM | TGI (SW-620 colon): 3.73 µM | GI50 (MDA-MB-231 breast): 1.84 µM | TGI (MDA-MB-231 breast): 4.63 µM | GI50 (UACC-62 melanoma): 2.74 µM | TGI (UACC-62 melanoma): 10.7 µM | GI50 (SK-MEL-28 melanoma): 2.06 µM | TGI (SK-MEL-28 melanoma): 3.85 µM | GI50 (LOX IMVI melanoma): 1.22 µM | TGI (LOX IMVI melanoma): 3.04 µM | GI50 (PC-3 prostate): 3.7 µM | TGI (PC-3 prostate): 20.7 µM | GI50 (NCI-H226 lung): 1.89 µM | TGI (NCI-H226 lung): 4.72 µM | GI50 (SK-MEL-2 melanoma): 7.2 µM | TGI (SK-MEL-2 melanoma): 32.8 µM | GI50 (RXF 393 renal): 1.57 µM | TGI (RXF 393 renal): 2.95 µM | GI50 (SN12C renal): 2.31 µM | TGI (SN12C renal): 6.51 µM | GI50 (T-47D breast): 1.55 µM | TGI (T-47D breast): 5.06 µM | GI50 (TK-10 renal): 2.28 µM | TGI (TK-10 renal): 3.75 µM | GI50 (HL-60(TB) leukemia): 1.4 µM | TGI (HL-60(TB) leukemia): 3.76 µM
